Values joined by “and” are separate entries in the source; they are usually repeats but may differ in a detail not shown here. Equal values may be shown once. Where a SMILES comes first, the peptide text is derived from it. [ ]: non-standard residue; d: D form. Hyp = O=C(O)[C@@H]1C[C@@H](O)CN1
Experiments:
Assay type in all cases: cell-based, human
IL-8/CXCL8 = assay: Example 8 main study Luminex, LPS hPBMCs: IL-8/CXCL8
Experimental: (§1) Human PBMCs were pretreated with YY-101, YDE-011, YDE-043 or reference compound; Xiidra® at various concentration (ranging from […] to 500 nM) for 2 h before stimulation. An equal volume of 0.5% DMSO was used as a vehicle control. Then, the cells were treated with LPS at 5 ug/ml, which was selected based on the pilot study. The supernatants from treated cells were harvested at 24 h and placed in a 96 well for Luminex cytokine & chemokine profiling using a Luminex 200 multiplex assay (Luminex; R&D system, USA).
(§2) The main study arm with triplicate wells per group in a 24-well plate: • 1. Blank • 2. PBMC: 0.5% DMSO • 3. PBMC+LPS (5 ug/ml) • 4. PBMC+YY-101 500 nM • 5. PBMC+YY-101 50 nM • 6. PBMC+YY-101 5 nM • 7. PBMC+YY-101 0.5 nM • 8. PBMC+LPS (5 ug/ml)+Xiidra® 500 nM • 9. PBMC+LPS (5 ug/ml)+Xiidra® 50 nM • 10. PBMC+LPS (5 ug/ml)+Xiidra® 5 nM • 11. PBMC+LPS (5 ug/ml)+Xiidra® 0.5 nM • 12. PBMC+LPS (5 ug/ml)+Xiidra® 0.05 nM • 13. PBMC+LPS (5 ug/ml)+Xiidra® 0.005 nM • 14. PBMC+LPS (5 ug/ml)+YY-101 500 nM • 15. PBMC+LPS (5 ug/ml)+YY-101 50 nM • 16. PBMC+LPS (5 ug/ml)+YY-101 5 nM • 17. PBMC+LPS (5 ug/ml)+YY-101 0.5 nM • 18. PBMC+LPS (5 ug/ml)+YY-101 0.05 nM • 19. PBMC+LPS (5 ug/ml)+YY-101 0.005 nM • 20. PBMC+LPS (5 ug/ml)+YDE-011 500 nM • 21. PBMC+LPS (5 ug/ml)+YDE-011 50 nM • 22. PBMC+LPS (5 ug/ml)+YDE-011 5 nM • 23. PBMC+LPS (5 ug/ml)+YDE-011 0.5 nM • 24. PBMC+LPS (5 ug/ml)+YDE-011 0.05 nM • 25. PBMC+LPS (5 ug/ml)+YDE-011 0.005 nM • 26. PBMC+LPS (5 ug/ml)+YDE-043 500 nM • 27. PBMC+LPS (5 ug/ml)+YDE-043 50 nM • 28. PBMC+LPS (5 ug/ml)+YDE-043 5 nM • 29. PBMC+LPS (5 ug/ml)+YDE-043 0.5 nM • 30. PBMC+LPS (5 ug/ml)+YDE-043 0.05 nM • 31. PBMC+LPS (5 ug/ml)+YDE-043 0.005 nM
(§3) Multiplex assay was used to measure 30 cytokines and chemokines. The 1:200 diluted cell supernatant and serial dilution of the standard were dispensed into a 96 well plate at 50 ul/well. Then, the pre-mixed cocktail of antibody-coated magnetic beads was dispensed at 50 ul/well and incubated at room temperature for 2 h in a horizontal orbital microplate shaker at 800±500 rpm. The beads were washed using a magnetic device to prevent loss. The biotin-antibody was dispensed in 50 ul of each well and incubated at room temperature for 1 h in a shaker at 800±500 rpm. After washing, streptavidin-PE was added at 50 ul/well and incubated at room temperature for 30 min in a shaker under the same conditions. Finally, after washing, wash buffer (100 ul/well) was added to the plate and incubated in a shaker for 2 min. The Luminex™ 200 setting were set according to the manufacturer's protocol. The data was calculated with a standard five-parameter logistic nonlinear regression analysis of the data (xPonent software 4.2, USA). Results were presented as concentration (ng/ml or pg/ml).

IL-10 = assay: Example 8 main study Luminex, LPS hPBMCs: IL-10; details: for IL-10 Concentration: individual replicates; for IL-10 Concentration (pg/ml), Mean: mean of replicates
Experimental: as §1, §2, §3

MMP-3 = assay: Example 8 main study Luminex, LPS hPBMCs: MMP-3; details: for MMP-3 Concentration: single replicates
Experimental: as §1, §2, §3

[1] = PBMC + LPS(5 ug/ml) + test article 0.005 nM
[2] = PBMC + LPS(5 ug/ml) + test article 0.05 nM
[3] = PBMC + LPS(5 ug/ml) + test article 0.5 nM
[4] = PBMC + LPS(5 ug/ml) + test article 5 nM
[5] = PBMC + LPS(5 ug/ml) + test article 50 nM
[6] = PBMC + LPS(5 ug/ml) + test article 500 nM
[7] = at as low as 5 μM, LPS 5 ug/mL 24 hrs
[8] = PBMC + LPS(5 ug/ml) + YY101 0.005 nM
[9] = PBMC + LPS(5 ug/ml) + YY101 0.05 nM
[10] = PBMC + LPS(5 ug/ml) + YY101 0.5 nM
[11] = PBMC + LPS(5 ug/ml) + YY101 5 nM
[12] = PBMC + LPS(5 ug/ml) + YY101 50 nM
[13] = PBMC + LPS(5 ug/ml) + YY101 500 nM

CC(C)C[C@H](NC(=O)CNC(=O)[C@H](CC(=O)O)NC(=O)[C@H](CCC(N)=O)NC(=O)CNC(=O)[C@@H]1C[C@@H](O)CN1)C(=O)N[C@@H](C)C(=O)NCC(=O)N1CCC[C@H]1C(=O)N[C@@H](CCCCN)C(=O)O [YY-101] (H-[Hyp]GQDGLAGPK-OH; N-terminus and C-terminus assumed)
IL-8/CXCL8 Concentration, Mean (IL-8/CXCL8; [1]): 58481.9 pg/mL | IL-8/CXCL8 Concentration (IL-8/CXCL8; PBMC + LPS(5 ug/ml) + test article 0.005 nM, single replicates (1st, 2nd, 3rd)): 61546.6 pg/mL and 56884.9 pg/mL and 57014.3 pg/mL | IL-8/CXCL8 Concentration, Mean (IL-8/CXCL8; [2]): 59990.6 pg/mL | IL-8/CXCL8 Concentration (IL-8/CXCL8; PBMC + LPS(5 ug/ml) + test article 0.05 nM, single replicates (1st, 2nd, 3rd)): 57359.8 pg/mL and 60536.4 pg/mL and 62075.6 pg/mL | IL-8/CXCL8 Concentration, Mean (IL-8/CXCL8; [3]): 60251.0 pg/mL | IL-8/CXCL8 Concentration (IL-8/CXCL8; PBMC + LPS(5 ug/ml) + test article 0.5 nM, single replicates (1st, 2nd, 3rd)): 60909.2 pg/mL and 57900.7 pg/mL and 61943.2 pg/mL | IL-8/CXCL8 Concentration, Mean (IL-8/CXCL8; [4]): 57315.8 pg/mL | IL-8/CXCL8 Concentration (IL-8/CXCL8; PBMC + LPS(5 ug/ml) + test article 5 nM, single replicates (1st, 2nd, 3rd)): 55583.6 pg/mL and 55980.8 pg/mL and 60383.1 pg/mL | IL-8/CXCL8 Concentration, Mean (IL-8/CXCL8; [5]): 54680.4 pg/mL | IL-8/CXCL8 Concentration (IL-8/CXCL8; PBMC + LPS(5 ug/ml) + test article 50 nM, single replicates (1st, 2nd, 3rd)): 54759.1 pg/mL and 53065.0 pg/mL and 56217.2 pg/mL | IL-8/CXCL8 Concentration, Mean (IL-8/CXCL8; [6]): 58292.3 pg/mL | IL-8/CXCL8 Concentration (IL-8/CXCL8; PBMC + LPS(5 ug/ml) + test article 500 nM, single replicates (1st, 2nd, 3rd)): 60492.6 pg/mL and 59945.6 pg/mL and 54438.6 pg/mL | IL-8/CXCL8 Concentration, Mean (IL-8/CXCL8; PBMC + test article 0.5 nM, no LPS): 3635.9 pg/mL | IL-8/CXCL8 Concentration (IL-8/CXCL8; PBMC + test article 0.5 nM, no LPS, single replicates (1st, 2nd)): 1970.8 pg/mL and 5300.9 pg/mL | IL-8/CXCL8 Concentration, Mean (IL-8/CXCL8; PBMC + test article 5 nM, no LPS): 2809.1 pg/mL | IL-8/CXCL8 Concentration (IL-8/CXCL8; PBMC + test article 5 nM, no LPS, single replicates (1st, 2nd)): 3848.8 pg/mL and 1769.4 pg/mL | IL-8/CXCL8 Concentration, Mean (IL-8/CXCL8; PBMC + test article 0.05 uM, no LPS): 8117.7 pg/mL | IL-8/CXCL8 Concentration (IL-8/CXCL8; PBMC + test article 0.05 uM, no LPS, single replicates (1st, 2nd)): 13586.7 pg/mL and 2648.7 pg/mL | IL-8/CXCL8 Concentration, Mean (IL-8/CXCL8; PBMC + test article 50 nM, no LPS): 1630.9 pg/mL | IL-8/CXCL8 Concentration (IL-8/CXCL8; PBMC + test article 50 nM, no LPS, single replicates (1st, 2nd)): 2009.8 pg/mL and 1252.1 pg/mL | IL-8/CXCL8 Concentration, Mean (IL-8/CXCL8; PBMC + test article 500 nM, no LPS): 1641.8 pg/mL | IL-8/CXCL8 Concentration (IL-8/CXCL8; PBMC + test article 500 nM, no LPS, single replicates (1st, 2nd)): 1297.1 pg/mL and 1986.4 pg/mL | LPS-induced IL-8 (in words) (IL-8/CXCL8; [7]): significantly reduced | IL-10 Concentration (IL-10; [1]): 832.3 pg/mL and 677.1 pg/mL and 780.9 pg/mL | IL-10 Concentration (pg/ml), Mean (IL-10; [1]): 763.4 pg/mL | IL-10 Concentration (IL-10; [2]): 806.6 pg/mL and 1121.8 pg/mL and 883.3 pg/mL | IL-10 Concentration (pg/ml), Mean (IL-10; [2]): 937.2 pg/mL | IL-10 Concentration (IL-10; [3]): 870.5 pg/mL and 703.2 pg/mL and 716.2 pg/mL | IL-10 Concentration (pg/ml), Mean (IL-10; [3]): 763.3 pg/mL | IL-10 Concentration (IL-10; [4]): 857.8 pg/mL and 934.0 pg/mL and 1009.5 pg/mL | IL-10 Concentration (pg/ml), Mean (IL-10; [4]): 933.8 pg/mL | IL-10 Concentration (IL-10; [5]): 651.0 pg/mL and 845.0 pg/mL and 793.8 pg/mL | IL-10 Concentration (pg/ml), Mean (IL-10; [5]): 763.3 pg/mL | IL-10 Concentration (IL-10; [6]): 832.3 pg/mL and 883.3 pg/mL and 755.1 pg/mL | IL-10 Concentration (pg/ml), Mean (IL-10; [6]): 823.5 pg/mL | IL-10 Concentration (IL-10; PBMC + test article 0.5 nM, no LPS, dilution 200): <2.59 pg/mL | IL-10 Concentration (IL-10; PBMC + test article 5 nM, no LPS, dilution 200): <2.59 pg/mL | IL-10 Concentration (IL-10; PBMC + test article 0.05 uM, no LPS, dilution 200): <2.59 pg/mL | IL-10 Concentration (IL-10; PBMC + test article 50 nM, no LPS, dilution 200): <2.59 pg/mL | IL-10 Concentration (IL-10; PBMC + test article 500 nM, no LPS, dilution 200): <2.59 pg/mL | LPS-induced IL-10 (in words) (IL-10; [7]): significantly reduced | MMP-3 Concentration, Mean (MMP-3; [8]): 7549.8 pg/mL | MMP-3 Concentration (MMP-3; [8]): 7549.7 pg/mL and 7474.3 pg/mL and 7625.3 pg/mL | MMP-3 Concentration, Mean (MMP-3; [9]): 8082.3 pg/mL | MMP-3 Concentration (MMP-3; [9]): 7776.9 pg/mL and 8541.1 pg/mL and 7928.9 pg/mL | MMP-3 Concentration, Mean (MMP-3; [10]): 7751.6 pg/mL | MMP-3 Concentration (MMP-3; [10]): 7701.1 pg/ml and 7776.9 pg/ml (2×) | MMP-3 Concentration, Mean (MMP-3; [11]): 7905.9 pg/mL | MMP-3 Concentration (MMP-3; [11]): 7549.7 pg/ml (2×) and 8618.2 pg/ml | MMP-3 Concentration, Mean (MMP-3; [12]): 7777.4 pg/mL | MMP-3 Concentration (MMP-3; [12]): 7549.7 pg/mL and 7701.1 pg/mL and 8081.3 pg/mL | MMP-3 Concentration, Mean (MMP-3; [13]): 7752.0 pg/mL | MMP-3 Concentration (MMP-3; [13]): 8043.1 pg/mL and 7663.2 pg/mL and 7549.7 pg/mL | MMP-3 Concentration, Mean (MMP-3; PBMC + YY101 0.5 nM, no LPS): 6246.3 pg/mL | MMP-3 Concentration (MMP-3; PBMC + YY101 0.5 nM, no LPS): 6062.8 pg/mL and 6429.9 pg/mL | MMP-3 Concentration, Mean (MMP-3; PBMC + YY101 5 nM, no LPS): 6246.0 pg/mL | MMP-3 Concentration (MMP-3; PBMC + YY101 5 nM, no LPS): 6172.6 pg/mL and 6319.4 pg/mL | MMP-3 Concentration, Mean (MMP-3; PBMC + YY101 0.05 uM, no LPS): 6374.8 pg/mL | MMP-3 Concentration (MMP-3; PBMC + YY101 0.05 uM, no LPS): 6503.7 pg/mL and 6245.9 pg/mL | MMP-3 Concentration, Mean (MMP-3; PBMC + YY101 50 nM, no LPS): 6118.0 pg/mL | MMP-3 Concentration (MMP-3; PBMC + YY101 50 nM, no LPS): 6282.7 pg/mL and 5953.3 pg/mL | MMP-3 Concentration, Mean (MMP-3; PBMC + YY101 500 nM, no LPS): 6356.3 pg/mL | MMP-3 Concentration (MMP-3; PBMC + YY101 500 nM, no LPS): 6282.7 pg/mL and 6429.9 pg/mL | LPS-induced MMP3 (in words) (MMP-3; [7]): significantly reduced

From patent US20230146455A1, “TREATMENT OF INFLAMMATORY DISEASES WITH PEPTIDES AND PHARMACEUTICAL COMPOSITIONS” (Yuyu Pharma, Inc., priority 2020, published 2023)
